The values that follow come from PMC8041284, “Tunable Methacrylamides for Covalent Ligand Directed Release Chemistry” (Journal of the American Chemical Society, 2021).

For the experiment, the target named is BTK (Homo sapiens, UniProt Q06187). Nature of the experiment: biochemical. The note with it: read-out: BTK inhibition (%), 0.75 uM BTK, […] probe 3l, 15 min preincubation.
BTK, sequence (Q06187 402-655 limits assumed): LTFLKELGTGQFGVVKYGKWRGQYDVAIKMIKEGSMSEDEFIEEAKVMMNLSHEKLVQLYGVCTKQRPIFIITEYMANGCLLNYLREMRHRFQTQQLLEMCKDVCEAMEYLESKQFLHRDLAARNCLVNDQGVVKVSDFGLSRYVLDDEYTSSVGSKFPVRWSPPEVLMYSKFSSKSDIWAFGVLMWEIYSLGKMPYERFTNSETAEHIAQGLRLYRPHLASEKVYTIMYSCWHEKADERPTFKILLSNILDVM

Consider `NC[C@@](O)(c1ccc(Cl)cc1)c1ccc(-c2cn[nH]c2)cc1` [PCM-0215408], for which the inhibition (as a rule, the change of the read-out against control, counted positive when it falls) at 10 µM was -10.3%.

With `Cc1cc(C)cc(C(=O)NOCCCCCC(=O)NO)c1` [PCM-0215409], the inhibition at 10 µM was 9.3%.

Take `CN(c1ccccc1CNc1nc(Nc2ccc3c(c2)CC(=O)N3)ncc1C(F)(F)F)S(C)(=O)=O` [PCM-0215410]: the inhibition at 10 µM worked out at 91.7%.

`CN(C)CCNC(=O)c1cccn2c(=O)c3cc4ccccc4cc3nc12` [PCM-0215411]: the inhibition at 10 µM came to 5.4%.

Consider `CNC(=O)c1ccccc1Nc1cc(Nc2ccc(N3CCOCC3)cc2OC)ncc1C(F)(F)F` [PCM-0215412], for which the inhibition at 10 µM was 63.4%.

Regarding `COc1ccc(Oc2cc(C)c(-c3csc(NC(=O)c4ccncc4)n3)c(C)c2)cc1` [PCM-0215413], the inhibition at 10 µM is 20.8%.

Take `Cc1cc(N=Nc2ccc(S(=O)(=O)Nc3ccccn3)cc2)c(N)cc1O` [PCM-0215414]: the inhibition at 10 µM was found to be 76.4%.

For `O=C(NO)c1ccc(CC(=O)N(CCO)c2ccccc2)cc1` [PCM-0215415], the inhibition at 10 µM was found to be 10.8%.

`C=CC(=O)N1CCC(Oc2cc3c(Nc4ccc(Cl)c(Cl)c4F)ncnc3cc2OC)CC1` [PCM-0215416]: the inhibition at 10 µM stood at 119%.

On to `CN(C)CCCNC(=O)c1ccc(-c2cc(O)c3ncccc3c2)cc1` [PCM-0215418], for which the inhibition at 10 µM came to 19.3%.

Consider `Cn1cc(-c2ccc(S(=O)(=O)n3ccc(/C=C/C(=O)Nc4ccccc4N)c3)cc2)cn1` [PCM-0215419], for which the inhibition at 10 µM came out at 32.4%.

As to `Nc1nc(NC2CC2)cc(-c2cccc(Cl)c2Cl)n1` [PCM-0215420], the inhibition at 10 µM was 28.6%.

`Cc1ncc(Cl)cc1NCc1ccc(C(=O)N[C@@H](CC2CCCC2)C(=O)NC2CC2)s1` [PCM-0215421]: the inhibition at 10 µM came to 15.4%.

As to `Fc1ccc2[nH]ccc2c1-c1nc(N2CCOCC2)c2sc(CN3CCN(CC4CC4)CC3)cc2n1` [PCM-0215422], the inhibition at 10 µM is -18.6%.

`CCc1cc(/C(C)=N/OCc2ccc(C3CCCCC3)c(C(F)(F)F)c2)ccc1CN1CC(C(=O)O)C1` [PCM-0215423]: the inhibition at 10 µM was -62.8%.

On to `COC(=O)[C@H](CCSC)NC(=O)c1ccc(NC[C@@H](N)CS)cc1-c1ccccc1` [PCM-0215424], for which the inhibition at 10 µM is -57.9%.

Regarding `CN(C)c1cccc(-c2c3c(=O)n(-c4ccccc4Cl)[nH]c3cc(=O)n2C)c1` [PCM-0215425], the inhibition at 10 µM was -1.4%.

For the compound `COc1ccc(CCNCc2ccc(OCc3ccc(Cl)nc3)c(OC)c2)cc1OC` [PCM-0215426], the inhibition at 10 µM is -27.6%.

For the compound `O=C(O)CCC(=O)Nc1ccc(Br)cn1` [PCM-0215427], the inhibition at 10 µM was -3.4%.

In the case of `Fc1ccc(Cl)cc1-c1nc(Nc2ccncc2)c2nccnc2n1` [PCM-0215428], the inhibition at 10 µM was -17%.

For `C/C(O)=C(\C#N)C(=O)Nc1cc(Br)ccc1Br` [PCM-0215429], the inhibition at 10 µM is -1.4%.

As to `O=C(O)c1cc(C(F)(F)F)ccc1N1CC[C@H](OCc2ccccn2)C1` [PCM-0215430], the inhibition at 10 µM was 8.5%.

Turning to `Cc1nc2ccc(NC(=O)Nc3ccnc4cccnc34)cc2o1` [PCM-0215431], the inhibition at 10 µM was -18.5%.

With `Cn1cc(C[C@@H](N)C(=O)O)c2ccccc21` [PCM-0215432], the inhibition at 10 µM is -11.1%.

Consider `CC(ONC(=O)c1cc(C(F)(F)F)cc(C(F)(F)F)c1)C(=O)Nc1ccc(Cl)cc1` (centres unmarked) [PCM-0215433], for which the inhibition at 10 µM was 7.7%.

Turning to `CNC(=O)c1cc(Oc2ccc3nc(N[C@@H]4CCCC[C@H]4O)sc3c2)ccn1` [PCM-0215436], the inhibition at 10 µM was -9%.

Take `CCCC[C@@H](C=O)NC(=O)[C@H](CC(C)C)NC(=O)OCc1ccccc1` [PCM-0215437]: the inhibition at 10 µM was -4.6%.

In the case of `O=C1NC(=O)C(c2cnc3ccccn23)=C1c1cn2c3c(cc(F)cc13)CN(C(=O)N1CCCCC1)CC2` [PCM-0215438], the inhibition at 10 µM turned out to be 80%.

In the case of `Cc1nc2ccc(-n3ncc(C(=O)c4cc5ccccc5[nH]4)c3N)cc2[nH]1` [PCM-0215439], the inhibition at 10 µM worked out at 44.8%.

Consider `COc1cc2nc(N3CCCC3)nc(NCCCCCN3CCCC3)c2cc1OC` [PCM-0215440], for which the inhibition at 10 µM is 17.8%.

Turning to `Cc1ccccc1N=Nc1ccc(NC(=O)c2ccnn2C)c(C)c1` [PCM-0215441], the inhibition at 10 µM was determined as 6.9%.

For the compound `Cc1nn(C)c2c1C(c1ccc(C(F)(F)F)cc1)C(C#N)=C(N)O2` (centres unmarked) [PCM-0215442], the inhibition at 10 µM is -6.9%.

Consider `CNc1cccc(CCOc2ccc3c(c2)CN(CC(F)(F)F)C(=O)[C@H](CC(=O)O)C3)n1` [PCM-0215443], for which the inhibition at 10 µM is 8.5%.

Consider `CC[C@H](C)n1cc(C)c2c(C(=O)NCc3c(C)cc(C)[nH]c3=O)cc(-c3ccc(N4CCNCC4)nc3)cc21` [PCM-0215444], for which the inhibition at 10 µM is -2.6%.

On to `C[C@H]1CO[C@@H]2Cn3cc(C(=O)NCc4ccc(F)cc4F)c(=O)c(O)c3C(=O)N12` [PCM-0215445], for which the inhibition at 10 µM was determined as 24.7%.

Consider `O=C(NC[C@H](O)CN1CCc2ccccc2C1)c1cc(NC2COC2)ncn1` [PCM-0215447], for which the inhibition at 10 µM was 1.5%.

Regarding `CC#CC(=O)Nc1ccc2ncnc(Nc3cccc(Br)c3)c2c1` [PCM-0215449], the inhibition at 10 µM was 103%.

In the case of `CC(C)(C)C[C@@H]1N[C@@H](C(=O)NC2CCC(O)CC2)[C@H](c2cccc(Cl)c2F)[C@]12C(=O)Nc1cc(Cl)ccc12` (some centres unmarked) [PCM-0215450], the inhibition at 10 µM worked out at 21.6%.

As to `COC(=O)c1ccc2c(c1)[nH]c1ncnc(NCCCN3CCCCC3)c12` [PCM-0215451], the inhibition at 10 µM is -0.8%.

For `O=S(=O)(N=Cc1c(O)ccc2ccccc12)c1cccs1` [PCM-0215452], the inhibition at 10 µM was -11.6%.

Consider `CCn1c(=O)c(-c2ccc(-c3cncs3)cc2Cl)cc2cnc(Nc3ccc(N4CCN(C)CC4)cc3)nc21` [PCM-0215453], for which the inhibition at 10 µM is 18.6%.

As to `Cc1nc(-c2cccnc2)sc1C(=O)Nc1ccccc1-c1cn2c(CN3CCOCC3)csc2n1` [PCM-0215454], the inhibition at 10 µM was determined as 12.4%.

With `O=C1NC(=NCc2cccs2)S/C1=C\c1ccc2ncccc2c1` [PCM-0215455], the inhibition at 10 µM is -9%.

As to `O=C(NO)c1cccc(C(=O)NCCc2ccccc2)c1` [PCM-0215456], the inhibition at 10 µM worked out at 10%.

Turning to `Clc1cccc(CN=C2Nc3ccccc3NC23CCNCC3)c1` [PCM-0215457], the inhibition at 10 µM is 4.6%.

On to `CN1CCN(CCCNc2ncc(Cl)c(-c3cc4c(C(=O)NC5CC5)cccc4s3)n2)CC1` [PCM-0215458], for which the inhibition at 10 µM is -10.8%.

Regarding `Cn1ncc(Cl)c1-c1cc(C(=O)N[C@H](CN)Cc2cccc(F)c2)sc1Cl` [PCM-0215459], the inhibition at 10 µM is -40%.

In the case of `COC1(c2sc3c(N4CCOCC4)nc(-c4cnc(N)nc4)nc3c2C)COC1` [PCM-0215460], the inhibition at 10 µM stood at 33.8%.

Consider `O=C(Cc1cccc(OC(F)(F)F)c1)Nc1ccc(CCCCc2nnc(NC(=O)Cc3ccccn3)s2)nn1` [PCM-0215461], for which the inhibition at 10 µM was 0%.

With `COc1cc(-c2cc(-c3ccc(N4CCNCC4)cc3)cnc2C)cc(OC)c1OC` [PCM-0215462], the inhibition at 10 µM is -19.3%.

On to `CCOC(=O)c1ccc(NC(=O)O[C@H]2[C@H](OC(=O)Nc3ccc4c(c3)OCO4)[C@@H](OC(=O)Nc3ccc4c(c3)OCO4)[C@@H](OC)O[C@@H]2CO)cc1` [PCM-0215463], for which the inhibition at 10 µM came out at 98.1%.

In the case of `CC(C)[C@H](CO)Nc1nc(Nc2cccc(Cl)c2)c2ncn(C(C)C)c2n1` [PCM-0215464], the inhibition at 10 µM is 50.3%.

As for `COc1cc2ncnc(Oc3ccc(CC(=O)Nc4cnn(C(C)C)c4)cc3)c2cc1OC` [PCM-0215465], the inhibition at 10 µM is -11.7%.

For `Cc1nc2c(O)cccc2c(=O)[nH]1` [PCM-0215466], the inhibition at 10 µM was -10.8%.

`O=[N+]([O-])c1ccc(Nc2nc(N3CCOCC3)nc(N3CCOCC3)n2)cc1` [PCM-0215468]: the inhibition at 10 µM was determined as 0%.

For the compound `Clc1cccc(-c2nnnn2Cc2cccnc2)c1Cl` [PCM-0215469], the inhibition at 10 µM was -0.8%.

As to `O=CN1CC/C(=C\c2ccc3c(c2)OCO3)C1=O` [PCM-0215470], the inhibition at 10 µM turned out to be 10.8%.

On to `NCCCC[C@@H]1NC(=O)[C@@H](Cc2ccccc2)NC(=O)[C@H](CC(=O)O)NC(=O)CNC(=O)[C@H](CCCN=C(N)N)NC1=O` [PCM-0215471], for which the inhibition at 10 µM is -10%.

Take `NC(=O)c1ccc(-c2nc(-c3ccc4c(c3)OCCO4)c(-c3ccccn3)[nH]2)cc1` [PCM-0215472]: the inhibition at 10 µM stood at 17.2%.

Consider `COc1ccc(Cl)c(Nc2nc3ccccc3nc2NS(=O)(=O)c2cccc(NC(=O)C(C)(C)N)c2)c1` [PCM-0215473], for which the inhibition at 10 µM was found to be 24.1%.

As for `N#Cc1ccc(COC[C@H]2O[C@@H](n3c(NCc4ccc(Cl)c(Cl)c4)nc4c(N)ncnc43)[C@H](O)[C@@H]2O)cc1` [PCM-0215474], the inhibition at 10 µM turned out to be 7.7%.

Regarding `Cc1ccc(-n2nc(C(C)(C)C)cc2NC(=O)NCc2cc(F)ccc2Oc2ccc3c(cnn3CCO)c2)cc1` [PCM-0215475], the inhibition at 10 µM amounted to 28.3%.

Consider `NCCOc1cc(C(=O)Nc2cc(OCCN)c3ccccc3n2)nc(C(=O)Nc2cc(OCCN)c3ccccc3n2)c1` [PCM-0215476], for which the inhibition at 10 µM amounted to 59.5%.

As to `CNc1ncc2cc(-c3cc(NC(=O)NCCC(C)(C)C)c(F)cc3C)c(C)nc2n1` [PCM-0215477], the inhibition at 10 µM worked out at 40.9%.

As for `O=C(O)CCNc1cc(N2CCc3ccccc3CC2)nc(-c2ccccn2)n1` [PCM-0215478], the inhibition at 10 µM was -3.1%.

Consider `Nc1ccccc1NC(=O)c1cnccn1` [PCM-0215479], for which the inhibition at 10 µM is -3.9%.

On to `O=C(c1ccc(F)c(F)c1Nc1ccc(I)cc1F)N1CC(O)([C@@H]2CCCCN2)C1` [PCM-0215480], for which the inhibition at 10 µM is -5.5%.

Regarding `CC(C)Nc1cc(-c2c[nH]c(C(=O)N[C@H](CO)c3cccc(Cl)c3)c2)c(Cl)cn1` [PCM-0215481], the inhibition at 10 µM amounted to 78.6%.

With `O=C(Cc1ccccc1)Nc1nnc(CCSCCc2nnc(NC(=O)Cc3ccccc3)s2)s1` [PCM-0215483], the inhibition at 10 µM came out at 5.4%.

Take `CCCCCCCCC/C(=C\C1=C(C)C(=O)C(OC)=C(OC)C1=O)C(=O)O` [PCM-0215484]: the inhibition at 10 µM is -13.9%.

As for `CC/C(=C(\c1ccc(O)cc1)c1ccc(OCCNC)cc1)c1ccccc1` [PCM-0215485], the inhibition at 10 µM came out at 14.7%.
